Experiments:
[1] = assay type: physicochemical
Method: (§1) 30.13 mg of 3 was added to 1 mL USP-purified water. The sample was rotated for 2 h and then centrifuged for 5 min. After centrifuging, solid was visible in the bottom of the tube. A 125 μL aliquot of the solution was then diluted to 25 mL. The sample was analyzed by UV/Vis spectroscopy at 436 nm, and the absorbance was compared to a standard curve compiled from four standards of known concentration. The concentration of the original supernatant was calculated to be 2.85 mg/mL and the absorptivity was 36.94 AU mL/cm mg. Slight error may have been introduced by the small size of the original aliquot.
as §1, with “Next, 30.80” for “30.13”, “8” for “3”, “411” for “436”, “29.27” for “2.85”, “2.90” for “36.94”

[2] = test system: superoxide anion generation from phorbol-ester (PMA)-stimulated PMNs; assay: Direct superoxide anion scavenging by EPR spectroscopy (DEPMPO spin-trap) in isolated human neutrophil assay; assay type: cell-based; settings: 40% EtOH, 0.1 mM; EtOH vehicle background 5%; listed as lutein diphosphate, sodium salt
Method: Human polymorphonuclear leukocytes (PMNs) were isolated from freshly sampled venous blood of a single volunteer by Percoll density gradient centrifugation as described previously. Briefly, each 10 mL of whole blood was mixed with 0.8 mL of 0.1 M EDTA and 25 mL saline. The diluted blood was then layered over 9 mL Percoll at a specific density of 1.080 g/mL. After centrifugation at 400 g for 20 min at 20° C., the plasma, mononuclear cell, and Percoll layers were removed. Erythrocytes were subsequently lysed by addition of 18 mL ice-cold water for 30 s, followed by 2 mL of 10× PIPES buffer (25 mM PIPES, 110 mM NaCl, and 5 mM KCl, titrated to pH 7.4 with NaOH). […] Afterward, PMNs were counted by light microscopy on a hemocytometer. […]
All EPR measurements were performed using a Bruker ER 300 EPR spectrometer operating at X-band with a TM110 cavity as previously described. The microwave frequency was measured with a Model 575 microwave counter (EIP Microwave, Inc., San Jose, Calif.). […]
Instrument settings used in the spin-trapping experiments were as follows: modulation amplitude, 0.32 G; time constant, 0.16 s; scan time, 60 s; modulation frequency, 100 kHz; microwave power, 20 mW; and microwave frequency, 9.76 GHz. The samples were placed in a quartz EPR .at cell, and spectra were recorded. The component signals in the spectra were identified and quantified as reported previously.

## 3,3′-Diphosphoryloxy-β,ε-carotene sodium salt [Compound 8]
[1]
  Increase in aqueous dispersibility versus the disuccinate sodium salt: > 10 fold
[2]
  Mean (% inhibition) of superoxide anion signal: (mean % inhibition = 18%) was increased above background scavenging (5%)

Source: US20060270589A1, “Carotenoids, carotenoid analogs, or carotenoid derivatives for the treatment of visual disabilities” (priority 2005, published 2006)
